The term viability denotes a read-out of living cells in per cent, often relative to untreated cells.

Our source for the viability values is paper PMC12040169 (PLOS Biology, 2025).

The nature of this series: in vitro. Conditions: human, hela cells, % viability.

With `CCOCCCNc1nc2c(c(=O)[nH]c(=O)n2C)n1CCC(C)C` [CBK287968], the viability at 28.5 h, 10 µM was 87.7%. `O=C1NC2(CCCCC2)C(=O)N1c1cccc(Cl)c1` [CBK287969]: the viability at 28.5 h, 10 µM turned out to be 94.3%. Turning to `CN(Cc1ccccc1)C(=O)c1cc(=O)[nH]c2ccccc12` [CBK287971], the viability at 28.5 h, 10 µM worked out at 92.8%. For the compound `CCN1CCN(c2ccc3nnc(C(C)C)n3n2)CC1` [CBK287974], the viability at 28.5 h, 10 µM stood at 88.3%.

`O=c1c2cc(OCc3ccc(Cl)cc3)ccc2nc2n1CCC2` [CBK287977]: the viability at 28.5 h, 10 µM is 91.6%. `Cc1ccc(-c2ccnc3[nH]c(=O)[nH]c(=O)c23)cc1` [CBK287978]: the viability at 28.5 h, 10 µM came to 89.7%. Turning to `O=C1CC(C(=O)Nc2ccccc2)n2cnnc2N1` (stereo not drawn) [CBK287980], the viability at 28.5 h, 10 µM worked out at 112%. Turning to `COc1cccc(C2SCC(=O)Nc3[nH]nc(C)c32)c1` (stereo not drawn) [CBK287981], the viability at 28.5 h, 10 µM was found to be 78.2%. Under `O=C(Nc1ccncc1)c1snnc1-c1ccccc1` [CBK287982] stands 81.4%; under `COc1ccc(OC)c(-n2cnc3c2NC(=O)CC3c2ccccc2Cl)c1` (stereo not drawn) [CBK287983], 91.1%. To `COc1cc2ncnc(NCc3ccccc3)c2cc1OC` [CBK287984] belongs 79.7%; to `O=C(Cn1nc(-c2ccco2)ccc1=O)Nc1ccccn1` [CBK287985], 87.4%; to `COc1cccc(CC(=O)Nc2ccc3c(C)cc(C)nc3n2)c1` [CBK287992], 74.1%. Consider `COc1ccc(CC(=O)NCC(=O)N2CCC3(CC2)NCCc2nc[nH]c23)cc1` [CBK287997], for which the viability at 28.5 h, 10 µM is 110%. In the case of `COc1ccc(CCN2C(=O)N[C@@H](CCC(=O)NC3CC3)C2=O)cc1` [CBK288001], the viability at 28.5 h, 10 µM turned out to be 109%. For the compound `O=C1Nc2ccccc2C12CC(c1ccccc1Cl)=NN2` (stereo not drawn) [CBK288004], the viability at 28.5 h, 10 µM amounted to 111%. As for `Cc1ccc(-n2c3nc(=O)n(C)c(=O)c-3cc3ccccc32)cc1` [CBK288007], the viability at 28.5 h, 10 µM was determined as 103%. Under `Cc1cc(C)cc(Cn2cc(NCc3ccccc3)c(=O)[nH]c2=O)c1` [CBK288009] stands 106%. For `O=C(O)c1ccc(-c2cnc3ccccc3n2)cc1` [CBK288010], the viability at 28.5 h, 10 µM worked out at 106%.

Consider `CCCCn1nc2[nH]c(=O)cc(C(F)F)c2c1C` [CBK288011], for which the viability at 28.5 h, 10 µM turned out to be 93.8%. To `COc1cccc(NC(=O)CCn2ncc(Cl)c2C)c1` [CBK288012] belongs 94.9%; to `O=c1cc(C(F)F)c2cn(C3CCCC3)nc2[nH]1` [CBK288016], 91.8%; to `Cn1ncc2c(C(=O)O)cc(-c3ccccc3)nc21` [CBK288024], 88.9%.

Regarding `Cc1ccccc1C1NC(=O)NC2=C1C(=O)N(C)C2` (stereo not drawn) [CBK288026], the viability at 28.5 h, 10 µM is 96.8%. For `CCn1c(SCC(=O)N2CCCC2)nc2cc(C)[nH]c2c1=O` [CBK288027], the viability at 28.5 h, 10 µM came to 99.9%.

As to `COc1cccc(Nc2[nH]nnc2C(=O)Nc2cccc(C)c2C)c1` [CBK288028], the viability at 28.5 h, 10 µM stood at 102%.

Turning to `Cc1ccccc1N1CCN(C(=O)c2nn[nH]c2Nc2ccccc2F)CC1` [CBK288032], the viability at 28.5 h, 10 µM was 101%. Under `O=c1[nH]c(CNc2ccccc2)nc2ccccc12` [CBK288038] stands 103%; under `Cn1c(SCc2ccccc2)nc2ccsc2c1=O` [CBK288039], 82.1%; under `O=C1NC2(CCCC2)N=C1c1ccc(Cl)cc1Cl` [CBK288042], 82.4%.

Regarding `O=c1[nH]c2c(-c3ccccc3)nnn2c2ccccc12` [CBK288047], the viability at 28.5 h, 10 µM was found to be 98.3%. In the case of `O=c1[nH]ccn2nc(-c3ccc4c(c3)OCO4)cc12` [CBK288048], the viability at 28.5 h, 10 µM is 87.7%. Consider `N#Cc1cnc2ccccc2c1N1CCC(C(=O)O)CC1` [CBK288050], for which the viability at 28.5 h, 10 µM came to 90%. Regarding `COc1ccc2ncc3c(-c4ccccc4)n[nH]c3c2c1` [CBK288052], the viability at 28.5 h, 10 µM came out at 93.3%. Regarding `COc1cccc(CNC(=O)c2cn[nH]c2-c2cccc(C)c2)c1` [CBK288056], the viability at 28.5 h, 10 µM is 102%. As for `COc1ccc(CNC(=O)c2cn[nH]c2-c2ccccc2)c(OC)c1` [CBK288057], the viability at 28.5 h, 10 µM came out at 100%. For the compound `COc1ccc(C(C)NC(=O)c2cc(-c3ccc(F)cc3)[nH]n2)cc1` (stereo not drawn) [CBK288060], the viability at 28.5 h, 10 µM was found to be 87%. Turning to `Cc1ccc(N2CC(c3nnc(N)o3)CC2=O)cc1` (stereo not drawn) [CBK288061], the viability at 28.5 h, 10 µM amounted to 93.8%. Consider `O=C1CC(c2ccccc2)n2nc(C(F)(F)F)nc2N1` (stereo not drawn) [CBK288063], for which the viability at 28.5 h, 10 µM came to 114%. For the compound `Cc1ccc(C2CC(c3cccnc3)Nc3nnnn32)cc1` (stereo not drawn) [CBK288067], the viability at 28.5 h, 10 µM was 97.9%.

As to `O=c1[nH]c(Nc2ccccc2)nc2nccc(-c3ccccc3)c12` [CBK288072], the viability at 28.5 h, 10 µM amounted to 88.8%. `O=C(c1nc2ncccn2n1)N1CCc2ccccc2C1` [CBK288079]: the viability at 28.5 h, 10 µM stood at 88%. Turning to `CC1CCc2onc(C(=O)Nc3ccncc3)c2C1` (stereo not drawn) [CBK288080], the viability at 28.5 h, 10 µM is 110%.

On to `Cc1nc2ccccc2n1CC(O)COc1ccccc1` (stereo not drawn) [CBK288084], for which the viability at 28.5 h, 10 µM was 106%.

For the compound `COc1cc(CNc2nnn[nH]2)cc(Cl)c1OC` [CBK288087], the viability at 28.5 h, 10 µM worked out at 97.8%. Regarding `CCCn1nnc(NCc2ccc(Cl)cc2)n1` [CBK288089], the viability at 28.5 h, 10 µM stood at 97.2%. To `CCC(C)NCc1cccc(Oc2ncccn2)c1` (stereo not drawn) [CBK288090] belongs 106%. On to `Cc1nc2ccccc2c(=O)n1Cc1cccnc1` [CBK288092], for which the viability at 28.5 h, 10 µM came out at 94.3%. Take `CC(Nc1ncnc2c1cnn2C)c1ccccc1` (stereo not drawn) [CBK288093]: the viability at 28.5 h, 10 µM came out at 106%. As for `Fc1ccc(C2C=C(c3ccc(F)cc3F)Nc3ncnn32)cc1` (stereo not drawn) [CBK288095], the viability at 28.5 h, 10 µM is 99.7%. On to `CC(C)c1ccc(-n2ncc3c(=O)[nH]cnc32)cc1` [CBK288096], for which the viability at 28.5 h, 10 µM came out at 70.7%.

As for `Cc1ccc(Nc2nc(N(C)C)nc3[nH]ncc23)cc1` [CBK288098], the viability at 28.5 h, 10 µM amounted to 108%. As to `CSc1ccccc1Nc1ncnc2n[nH]cc12` [CBK288099], the viability at 28.5 h, 10 µM was found to be 114%. With `Cc1ccc(-n2cc(-c3ccccc3)[nH]c2=O)cc1` [CBK288103], the viability at 28.5 h, 10 µM was determined as 101%. Under `CCOc1ccc(-c2nc(N)ncc2Oc2ccc(OC)cc2)c(O)c1` [CBK288105] stands 101%; under `CCOc1ccc(-c2n[nH]c(C)c2-c2ccc(OC)c(OC)c2)c(O)c1` [CBK288106], 102%; under `CN(C(=O)c1ccc(-n2nncc2-c2ccccc2)cc1)c1ccccc1` [CBK288107], 108%. For the compound `COc1cccc(-c2cc(C(=O)N3CCC(C)CC3)n[nH]2)c1` [CBK288109], the viability at 28.5 h, 10 µM was determined as 94.3%.

On to `CCOc1ccc(-c2ncncc2-c2ccccc2)c(O)c1` [CBK288111], for which the viability at 28.5 h, 10 µM stood at 86.4%. Under `COc1ccc(-c2cn[nH]c2-c2ccc(OCCN3CCOCC3)cc2O)cc1` [CBK288112] stands 97%. Consider `COc1ccc(-c2cc(C(=O)Nc3c(C)cccc3C)n[nH]2)c(OC)c1` [CBK288114], for which the viability at 28.5 h, 10 µM was determined as 107%. As to `Nc1nn2c(-c3cccc(Cl)c3)nnc2s1` [CBK288122], the viability at 28.5 h, 10 µM was found to be 73.2%.

Turning to `O=c1ccnc(SCc2cccc(Cl)c2)[nH]1` [CBK288123], the viability at 28.5 h, 10 µM came out at 100%. For the compound `O=C1Nc2cc(C(F)(F)F)ccc2N2CCCC12` (stereo not drawn) [CBK288125], the viability at 28.5 h, 10 µM is 99.7%. For `CNC(=O)c1cnc2sc3c(n2c1=O)CCCC3` [CBK288126], the viability at 28.5 h, 10 µM was 102%. Regarding `CCOc1cccc(CNc2nn[nH]n2)c1OCc1ccc(C)cc1` [CBK288127], the viability at 28.5 h, 10 µM amounted to 110%. To `CCCn1nnnc1NCc1cccc(Cl)c1` [CBK288130] belongs 98.7%; to `C=CCn1nnc(NC(=O)COc2ccccc2)n1` [CBK288131], 108%. On to `COc1ccccc1CNC(=O)c1ccc(=O)[nH]c1` [CBK288133], for which the viability at 28.5 h, 10 µM was 106%.

Take `Cc1cc(C)nc(-n2ncc(C#N)c2NC(=O)c2ccccc2)n1` [CBK288135]: the viability at 28.5 h, 10 µM was found to be 111%. In the case of `Cn1c(=O)[nH]c(=O)c2c(-c3ccccc3)ccnc21` [CBK288136], the viability at 28.5 h, 10 µM amounted to 72%. As to `Cc1ccc(-c2nc3ccccc3c(=O)o2)cc1C` [CBK288137], the viability at 28.5 h, 10 µM worked out at 97.4%. Turning to `Cc1ccccc1N1CC(C(=O)Nc2cccnc2)CC1=O` (stereo not drawn) [CBK288138], the viability at 28.5 h, 10 µM stood at 88.3%. Take `Nc1ncnc(N(c2ccccc2)c2ccccc2)n1` [CBK288139]: the viability at 28.5 h, 10 µM is 104%. On to `CCCc1cc(=O)[nH]c(Nc2ccc(OCC)cc2)n1` [CBK288140], for which the viability at 28.5 h, 10 µM came out at 112%. Regarding `Cc1ccc(Cc2nc(-c3cccnc3)no2)cc1` [CBK288141], the viability at 28.5 h, 10 µM came to 94.3%. `Cc1cccc(/N=C(\N)Nc2nc(=O)cc(C)[nH]2)c1` [CBK288144]: the viability at 28.5 h, 10 µM is 93.1%. To `COc1ccc(-n2cnc3ccccc3c2=O)cc1` [CBK288145] belongs 94.4%; to `Cc1ccc(C2C3=C(CC(C)(C)CC3=O)Nc3[nH][nH]c(=O)c32)o1` (stereo not drawn) [CBK288147], 104%.

In the case of `O=C(COc1ccc2c(c1)OCO2)Nc1ccccn1` [CBK288148], the viability at 28.5 h, 10 µM worked out at 86.6%. For the compound `O=C(Nc1ccccc1C(=O)c1ccccc1)c1ccccn1` [CBK288150], the viability at 28.5 h, 10 µM came to 89.1%. Regarding `CCC(Oc1ccccc1)C(=O)Nc1cc(C)on1` (stereo not drawn) [CBK288152], the viability at 28.5 h, 10 µM turned out to be 101%. `COc1ccc(Nc2nc(N)nc(CN3CC(C)CC(C)C3)n2)cc1` (stereo not drawn) [CBK288154]: the viability at 28.5 h, 10 µM was found to be 99.2%.

Turning to `CCCCCc1nnc(Nc2nc(C)cc(C)n2)[nH]1` [CBK288155], the viability at 28.5 h, 10 µM is 95.4%. In the case of `Cc1ccc(-c2cc(C(=O)Nc3cccnc3)[nH]n2)c(O)c1C` [CBK288158], the viability at 28.5 h, 10 µM was found to be 93.3%. As to `Cc1oc2ncn(Cc3ccccc3)c(=N)c2c1C` [CBK288160], the viability at 28.5 h, 10 µM came to 94.4%.

As for `COc1ccc(Nc2ncnc3c2c(C)c(C)n3CCO)cc1` [CBK288161], the viability at 28.5 h, 10 µM turned out to be 102%.
